The subject of this assay is HIV-1 LAI envelope single-round infectious reporter virus. Briefly: Single-round infectious HIV-1 LAI luciferase reporter virus infection of MT2 cells. In kind it is cell-based. To be noted: Human immunodeficiency virus 1, MT2, 72 h. The source says: • Virus production—Human embryonic Kidney cell line, 293T (HEK 293T), was propagated in Dulbecco's Modified Eagle Medium (Invitrogen, Carlsbad, Calif.) containing 10% fetal bovine serum (FBS, Sigma, St. Louis, Mo.). The human T-cell leukemia cell MT2 (AIDS Research and Reference Reagent Program, Cat. 237) was propagated in RPMI 1640 (Invitrogen, Carlsbad, Calif.) containing 10% fetal bovine serum (FBS, Hyclone, Logan, Utah) • Virus infection—Single-round infectious reporter virus was produced by co-transfecting HEK 293T cells with plasmide expressing the HIV-1 LAI envelope along with a plasmid containing an HIV-1 LAI proviral cDNA with the envelope gene replaced by a firefly luciferase reporter gene (Chen et al., Ref. 41). Transfections were performed using lipofectAMINE PLUS reagent as described by the manufacturer (Invitrogen, Carlsbad, Calif.).
• 1. MT2 cells were plated in black, 384 well plates at a cell density of 5×10^3 cells per well in 25 μl RPMI 1640 containing 10% FBS. • 2. Compound (diluted in dimethylsulfoxide and growth medium) was added to cells at 12.5 μl/well, so that the final assay concentration would be ≦50 nM. • 3. 12.5 μl of single-round infectious reporter virus in Dulbecco's Modified Eagle Medium was added to the plated cells and compound at an approximate multiplicity of infection (MOI) of 0.01, resulting in a final volume of 50 μl per well. • 4. Virus-infected cells were incubated at 37 degrees Celsius in a CO2 incubator and harvested 72 h after infection. • 5. Viral infection was monitored by measuring luciferase expression in the infected cells using a luciferase reporter gene assay kit (Steady-Glo, Promega, Madison, Wis.) as described by the manufacturer. Luciferase activity was then quantified by measuring luminescence using an EnVision Multilabel Plate Readers (PerkinElmer, Waltham, Mass.). • 6. The percent inhibition for each compound was calculated by quantifying the level of luciferase expression in cells infected in the presence of each compound as a percentage of that observed for cells infected in the absence of compound and subtracting such a determined value from 100. • 7. An EC50 provides a method for comparing the antiviral potency of the compounds of the invention. The effective concentration for fifty percent inhibition (EC50) was calculated with the Microsoft Excel Xlfit curve fitting software. For each compound, curves were generated from percent inhibition calculated at 10 different concentrations by using a four parameter logistic model (model 205). Table 1 is the key for the data in Table 2.
For orientation: Reporter assays use an easily measured gene product as a stand-in for the process of interest.

Where [1] appears, read: read-out: EC50 Group from Table 1.

SMILES strings stand for the structures. pEC50: −log10 of the molar value. Like-named read-outs stand apart in the source and are kept apart here.

As for `COc1cnc(-n2ccnn2)c2[nH]cc(C(=O)C(=O)N3CCN(c4ncnc5ncccc45)CC3)c12` [Compound 2007], under setting [1], the pEC50 (in general, the negative decadic logarithm of the EC50, by convention in mol/L) is over 6.30. On the same count and under the same terms, next, `COc1cnc(-n2cnc(C)n2)c2[nH]cc(C(=O)C(=O)N3CCN(c4cccc5cccnc45)CC3)c12` [Compound 2005]: over 6.30.

Take `O=C(C(=O)N1CCN(c2ncnc3ncccc23)CC1)c1c[nH]c2c(-n3ccnn3)ncc(F)c12` [Compound 2008]: the pEC50 was 8.91. Further, the pEC50 under setting [1] was over 6.30. `COc1cnc(-n2cnc(C)n2)c2[nH]cc(C(=O)C(=O)N3CCN(C4(c5ccccc5)CC4)CC3)c12` [Compound 1002]: under setting [1], the pEC50 was under 6.30. Regarding `O=C(C(=O)N1CCCN(Cc2ccccc2)CC1)c1c[nH]c2c(-n3ccnn3)ncc(F)c12` [Compound 1007], the pEC50 under setting [1] is over 6.30. The same measure, in the same setting: next, `O=C(C(=O)N1CCN(c2cccc3cccnc23)CC1)c1c[nH]c2c(-n3ccnn3)ncc(F)c12` [Compound 2004]: over 6.30; `COc1cnc(-n2cnc(C)n2)c2[nH]cc(C(=O)C(=O)N3CCN(c4ccccc4-c4nc5ccccc5s4)CC3)c12` [Compound 1010]: over 6.30; `COc1cnc(-n2cnc(C)n2)c2[nH]cc(C(=O)C(=O)N3CCN(c4cccc5ccncc45)CC3)c12` [Compound 2003]: over 6.30. Still for that read-out and setting: to `COc1cnc(-n2cnc(C)n2)c2[nH]cc(C(=O)C(=O)N3CCN(C4(c5ccccn5)CC4)CC3)c12` [Compound 1003] belongs under 6.30. The same measure, in the same setting: next, `COc1cnc(-n2cnc(C(N)=O)n2)c2[nH]cc(C(=O)C(=O)N3CCN(c4nc5ccccn5n4)CC3)c12` [Compound 1004]: over 6.30; `COc1cnc(-n2cnc(C)n2)c2[nH]cc(C(=O)C(=O)N3CCN(c4nccc5cccnc45)CC3)c12` [Compound 2002]: over 6.30; `CC(c1ccccc1)N1CCN(C(=O)C(=O)c2c[nH]c3c(-n4ccnn4)ncc(F)c23)CC1` (stereo not shown) [Compound 1005]: over 6.30. Turning to `O=C(C(=O)N1CCCN(c2nnnn2-c2ccccc2)CC1)c1c[nH]c2c(-n3ccnn3)ncc(F)c12` [Compound 1009], the pEC50 under setting [1] is over 6.30.

Take `COc1cnc(-n2cnc(C)n2)c2[nH]cc(C(=O)C(=O)N3CCN(c4ncnc5ncccc45)CC3)c12` [Compound 2006]: under setting [1], the negative-log EC50 (pEC50) was over 6.30. Same read-out and setting: next, `O=C(C(=O)N1CCN(Cc2ccccn2)CC1)c1c[nH]c2c(-n3ccnn3)ncc(F)c12` [Compound 1006]: over 6.30. Regarding `O=C(C(=O)N1CCN(c2cccc3ccccc23)CC1)c1c[nH]c2c(-n3ccnn3)ncc(F)c12` [Compound 2001], the pEC50 was 8.53. Moreover, under setting [1], the pEC50 is over 6.30. In the same order, the values of `O=C(C(=O)N1CCCN(c2ccccn2)CC1)c1c[nH]c2c(-n3ccnn3)ncc(F)c12` [Compound 1008] are 7.05 and over 6.30.

The molecule `COc1cnc(-n2cnc(C)n2)c2[nH]cc(C(=O)C(=O)N3CCN(C4=NCCc5ccccc54)CC3)c12` [Compound 1001] had a pEC50 of 9.07. Under setting [1], the pEC50 was over 6.30.

The values are drawn from patent US20160052923A1, “PIPERAZINE AND HOMOPIPERAZINE DERIVATIVES AS HIV […]” (priority 2013, published 2016).
